Source: US10597388B2, “Pyridazinone herbicides” (FMC CORPORATION, priority 2014, dated 2020)

Legend:
Type in all cases: in vivo
[1] = tested on: blackgrass (Alopecurus myosuroides); experiment: Test A greenhouse herbicide test, postemergence; details: for Plant response rating, Blackgrass: 125 g ai/ha, visual rating after approx. 10 d, 0 to 100 scale (0 no effect, 100 complete control); for Blackgrass plant response rating: 500 g ai/ha, 0 to 100 scale, 0 is no effect, 100 is complete control
In short: (§1)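 Scores are visual injury ratings from 0 (no effect) to 100 (complete control) versus untreated plants, taken roughly 10 d after treatment in the greenhouse. Treatment was postemergence, on one- to two-leaf plants 2–10 cm high growing in a loam soil/sand mix.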

[2] = tested on: galium (catchweed bedstraw, Galium aparine); experiment: Test A greenhouse herbicide test, postemergence; details: for Plant response rating, Galium: 125 g ai/ha, visual rating after approx. 10 d, 0 to 100 scale (0 no effect, 100 complete control); for Galium plant response rating: 500 g ai/ha, 0 to 100 scale, 0 is no effect, 100 is complete control
In short: as §1

[3] = tested on: barnyardgrass (Echinochloa crus-galli); experiment: Test B flooded paddy test; details: 250 g ai/ha, Flood; visual rating on scale of 0 to 100 where 0 is no effect and 100 is complete control; 13 to 15 d after treatment
In short: (§2)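 Ratings use a 0-100 visual scale, where 100 is complete control, and compare treated plants with controls after 13 to 15 d of greenhouse growth. Compound went straight into paddy water kept 3 cm over the soil surface, applied to seedlings at the 2-leaf stage.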

[4] = tested on: ducksalad (Heteranthera limosa); experiment: Test B flooded paddy test; details: 250 g ai/ha, Flood; visual rating on scale of 0 to 100 where 0 is no effect and 100 is complete control; 13 to 15 d after treatment
In short: as §2

rice (Oryza sativa) = experiment: Test B flooded paddy test; details: 250 g ai/ha, Flood; visual rating on scale of 0 to 100 where 0 is no effect and 100 is complete control; 13 to 15 d after treatment
In short: as §2

[5] = tested on: sedge, umbrella (small-flower umbrella sedge, Cyperus difformis); experiment: Test B flooded paddy test; details: 250 g ai/ha, Flood; visual rating on scale of 0 to 100 where 0 is no effect and 100 is complete control; 13 to 15 d after treatment
In short: as §2

[6] = tested on: johnsongrass (Sorghum halepense); experiment: Test C greenhouse herbicide test, pre- and postemergence
Text: (§3) Seeds of plant species selected from blackgrass (Alopecurus myosuroides), ryegrass, Italian (Italian ryegrass, Lolium multiflorum), wheat (winter wheat, Triticum aestivum), galium (catchweed bedstraw, Galium aparine), corn (Zea mays), large crabgrass, large (large crabgrass, Digitaria sanguinalis), foxtail, giant (giant foxtail, Setaria faberii), johnsongrass (Sorghum halepense), lambsquarters (Chenopodium album), morningglory (Ipomoea coccinea), nutsedge, yellow (yellow nutsedge, Cyperus esculentus), pigweed (Amaranthus retroflexus), ragweed (common ragweed, Ambrosia elatior), soybean (Glycine max), barnyardgrass (Echinochloa crus-galli), oilseed rape (Brassica napus), waterhemp (common waterhemp, Amaranthus rudis), and velvetleaf (Abutilon theophrasti) were planted into a blend of loam soil and sand and treated preemergence with test chemicals formulated in a non-phytotoxic solvent mixture which included a surfactant.
(§4) At the same time, plants selected from these crop and weed species and also chickweed (common chickweed, Stellaria media), kochia (Kochia scoparia), and oat, wild (wild oat, Avena fatua), were planted in pots containing Redi-Earth® planting medium (Scotts Company, 14111 Scottslawn Road, Marysville, Ohio 43041) comprising spaghnum peat moss, vermiculite, wetting agent and starter nutrients and treated with postemergence applications of test chemicals formulated in the same manner. Plants ranged in height from 2 to 18 cm (1- to 4-leaf stage) for postemergence treatments. Treated plants and controls were maintained in a greenhouse for 13 to 15 d, after which time all species were compared to controls and visually evaluated. Plant response ratings, summarized in Table C, are based on a scale of 0 to 100 where 0 is no effect and 100 is complete control. A dash (-) response means no test result.

[7] = tested on: nutsedge, yellow (yellow nutsedge, Cyperus esculentus); experiment: as above
Text: as §3, §4

soybean (Glycine max) = experiment: as above
Text: as §3, §4

[8] = tested on: chickweed (common chickweed, Stellaria media); experiment: Test C greenhouse herbicide test, postemergence
In short: (§5)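 Postemergence foliar treatment, 1- to 4-leaf stage (2–18 cm), peat/vermiculite medium; greenhouse 13–15 d; visual rating vs controls, 0 = no effect, 100 = complete control; dash = no result.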

kochia (Kochia scoparia) = experiment: Test C greenhouse herbicide test, postemergence
In short: as §5

[9] = tested on: oat, wild (wild oat, Avena fatua); experiment: Test C greenhouse herbicide test, postemergence
In short: as §5

[10] = Postemergence, 31 g ai/ha, 0 to 100 scale (0 no effect, 100 complete control)
[11] = Postemergence, 125 g ai/ha, scale 0 to 100, 0 is no effect, 100 is complete control
[12] = Postemergence, 250 g ai/ha, scale 0 to 100, 0 no effect, 100 complete control, 13 to 15 d
[13] = Preemergence, 31 g ai/ha, scale 0 to 100, 0 is no effect, 100 is complete control
[14] = Preemergence, 62 g ai/ha, scale 0 to 100, 0 is no effect, 100 is complete control
[15] = Preemergence, 125 g ai/ha, scale 0 to 100, 0 is no effect, 100 is complete control
[16] = Preemergence, 250 g ai/ha, scale 0 to 100, 0 no effect, 100 complete control
[17] = postemergence, 62 g ai/ha, scale 0 to 100, 0 no effect, 100 complete control

Cc1cc(C)c2ccccc2c1-c1c(O)c(C)nn(C)c1=O [Compound 21]
Plant response rating, Blackgrass [1]: 90 | Blackgrass plant response rating [1]: 90 | Plant response rating, Galium [2]: 100 | Galium plant response rating [2]: 100 | Plant response rating, Barnyardgrass [3]: 70 | Plant response rating, Ducksalad [4]: 0 | Plant response rating, Rice (rice (Oryza sativa)): 55 | Plant response rating, Sedge, Umbrella [5]: 65 | Johnsongrass plant response rating [6, 10]: 10 | Plant response rating, Johnsongrass [6, 11]: 20 | Plant response rating, Johnsongrass [6, 12]: 35 | Plant response rating, Johnsongrass [6, 13]: 10 | Plant response rating, Johnsongrass [6, 14]: 10 | Plant response rating, Johnsongrass [6, 15]: 35 | Johnsongrass plant response rating [6, 16]: 50 | Johnsongrass plant response rating [6, 17]: 20 | Nutsedge, Yellow plant response rating [7, 10]: 85 | Plant response rating, Nutsedge, Yellow [7, 11]: 90 | Plant response rating, Nutsedge, Yellow [7, 12]: 90 | Plant response rating, Nutsedge, Yellow [7, 13]: 75 | Plant response rating, Nutsedge, Yellow [7, 14]: 85 | Plant response rating, Nutsedge, Yellow [7, 15]: 85 | Nutsedge, Yellow plant response rating [7, 16]: 85 | Nutsedge, Yellow plant response rating [7, 17]: 90 | Soybean plant response rating (soybean (Glycine max); [10]): 0 | Plant response rating, Soybean (soybean (Glycine max); [11]): 10 | Plant response rating, Soybean (soybean (Glycine max); [12]): 20 | Plant response rating, Soybean (soybean (Glycine max); [14]): 0 | Plant response rating, Soybean (soybean (Glycine max); [15]): 0 | Soybean plant response rating (soybean (Glycine max); [16]): 20 | Soybean plant response rating (soybean (Glycine max); [17]): 0 | Chickweed plant response rating [8, 10]: 95 | Plant response rating, Chickweed [8, 11]: 100 | Plant response rating, Chickweed [8, 12]: 100 | Chickweed plant response rating [8, 17]: 100 | Kochia plant response rating (kochia (Kochia scoparia); [10]): 80 | Plant response rating, Kochia (kochia (Kochia scoparia); [11]): 95 | Plant response rating, Kochia (kochia (Kochia scoparia); [12]): 100 | Kochia plant response rating (kochia (Kochia scoparia); [17]): 90 | Oat, Wild plant response rating [9, 10]: 90 | Plant response rating, Oat, Wild [9, 11]: 98 | Plant response rating, Oat, Wild [9, 12]: 100 | Oat, Wild plant response rating [9, 17]: 98

Cc1nn(C)c(=O)c(-c2c(C)sc3ccc(Br)cc23)c1O [Compound 22]
Plant response rating, Blackgrass [1]: 50 | Blackgrass plant response rating [1]: 70 | Plant response rating, Galium [2]: 90 | Galium plant response rating [2]: 100 | Plant response rating, Barnyardgrass [3]: 0 | Plant response rating, Ducksalad [4]: 0 | Plant response rating, Rice (rice (Oryza sativa)): 0 | Plant response rating, Sedge, Umbrella [5]: 0 | Johnsongrass plant response rating [6, 10]: 5 | Plant response rating, Johnsongrass [6, 11]: 5 | Plant response rating, Johnsongrass [6, 12]: 5 | Plant response rating, Johnsongrass [6, 13]: 0 | Plant response rating, Johnsongrass [6, 14]: 0 | Plant response rating, Johnsongrass [6, 15]: 0 | Johnsongrass plant response rating [6, 16]: 0 | Johnsongrass plant response rating [6, 17]: 5 | Nutsedge, Yellow plant response rating [7, 10]: 35 | Plant response rating, Nutsedge, Yellow [7, 11]: 65 | Plant response rating, Nutsedge, Yellow [7, 12]: 65 | Plant response rating, Nutsedge, Yellow [7, 13]: 55 | Plant response rating, Nutsedge, Yellow [7, 14]: 45 | Plant response rating, Nutsedge, Yellow [7, 15]: 70 | Nutsedge, Yellow plant response rating [7, 16]: 70 | Nutsedge, Yellow plant response rating [7, 17]: 50 | Soybean plant response rating (soybean (Glycine max); [10]): 0 | Plant response rating, Soybean (soybean (Glycine max); [11]): 0 | Plant response rating, Soybean (soybean (Glycine max); [12]): 0 | Plant response rating, Soybean (soybean (Glycine max); [14]): 0 | Plant response rating, Soybean (soybean (Glycine max); [15]): 0 | Soybean plant response rating (soybean (Glycine max); [16]): 5 | Soybean plant response rating (soybean (Glycine max); [17]): 0 | Chickweed plant response rating [8, 10]: 90 | Plant response rating, Chickweed [8, 11]: 95 | Plant response rating, Chickweed [8, 12]: 98 | Chickweed plant response rating [8, 17]: 90 | Kochia plant response rating (kochia (Kochia scoparia); [10]): 90 | Plant response rating, Kochia (kochia (Kochia scoparia); [11]): 95 | Plant response rating, Kochia (kochia (Kochia scoparia); [12]): 95 | Kochia plant response rating (kochia (Kochia scoparia); [17]): 95 | Oat, Wild plant response rating [9, 10]: 40 | Plant response rating, Oat, Wild [9, 11]: 80 | Plant response rating, Oat, Wild [9, 12]: 80 | Oat, Wild plant response rating [9, 17]: 50
